Results reported in US11053235B2, “Substituted 1,4-dihydropyrimidines for the treatment of HBV infection or HBV-induced diseases” (Janssen Sciences Ireland Unlimited Company, priority 2018, dated 2021).
Where a name gives a salt, the structure may show the parent alone. Read-outs that look alike come from different tables or passages of the source.

How the values were obtained:
[1] = system: HBV; test: Anti-viral assay in HepG2.2.15 cells: HBV inhibitory activity (HBV DNA in culture medium by q-PCR); format: cell-based; conditions: Hepatitis B virus, HepG2.2.15, 144 h
Method in brief: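 HepG2.2.15 cells seeded at 40,000/well in 2% FBS medium, dosed next day for 6 days (medium refreshed once midway); 8-point 3-fold dilutions from 10 uM top. HBV DNA in culture medium extracted and quantified by q-PCR; EC50 calculated from dose-response.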

[2] = Cytotoxicity determination in HepG2.2.15 cells (CCK-8); format: cell-based; conditions: human, 6 days treatment, CCK-8, highest concentration 100 uM
Method in brief: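 HepG2.2.15 cells seeded at 5,000 cells/well in 2% FBS medium and exposed to compounds for 6 days (medium refreshed once), 8 three-fold dilutions from 100 uM. Viability read by CCK-8 after 2.5 h at 37 °C, absorbance 450 nm with 630 nm reference; CC50 calculated.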

[3] = HepG2.2.15 cells, 6 days treatment, HBV DNA in culture medium by q-PCR, highest concentration 10 uM, read-out: EC50

CCOC(=O)C1=C(C2CCN(c3nc(OC)cc(C(=O)O)n3)CC2)NC(c2nccs2)=NC1c1ccc(F)c(F)c1Cl (single isomer, unassigned) [II-57-B, 2-(4-(6-(2-chloro-3,4-difluorophenyl)-5-(ethoxycarbonyl)-2-(thiazol-2-yl)-3,6-dihydropyrimidin-4-yl)piperidin-1-yl)-6-methoxypyrimidine-4-carboxylic Acid]
EC50 [1, 3]: 0.1 µM
CC50 at 6 days [2]: 4.88 µM

CCOC(=O)C1=C(C2CCN(c3nc(C)cc(C(=O)O)n3)CC2)NC(c2nccs2)=NC1c1ccc(F)c(F)c1Cl (single isomer, unassigned) [II-58-B, 2-(4-(6-(2-Chloro-3,4-difluorophenyl)-5-(ethoxycarbonyl)-2-(thiazol-2-yl)-3,6-dihydropyrimidin-4-yl)piperidin-1-yl)-6-methylpyrimidine-4-carboxylic Acid]
EC50 [1, 3]: 0.037 µM
CC50 at 6 days [2]: 4.8 µM

CCOC(=O)C1=C(C2CCN(c3ncc(C(C)C)c(C(=O)O)n3)CC2)NC(c2nccs2)=NC1c1ccc(F)c(F)c1Cl (single isomer, unassigned) [II-59-B, 2-(4-(6-(2-Chloro-3,4-difluorophenyl)-5-(ethoxycarbonyl)-2-(thiazol-2-yl)-3,6-dihydropyrimidin-4-yl)piperidin-1-yl)-5-isopropylpyrimidine-4-carboxylic Acid]
EC50 [1, 3]: 0.013 µM
CC50 at 6 days [2]: 8.65 µM

CCOC(=O)C1=C(C2CCN(c3ncc(CC)c(C(=O)O)n3)CC2)NC(c2nccs2)=NC1c1ccc(F)c(F)c1Cl (single isomer, unassigned) [II-60-B, 2-(4-(6-(2-Chloro-3,4-difluorophenyl)-5-(ethoxycarbonyl)-2-(thiazol-2-yl)-3,6-dihydropyrimidin-4-yl)piperidin-1-yl)-5-ethylpyrimidine-4-carboxylic Acid]
EC50 [1, 3]: 0.0059 µM
CC50 at 6 days [2]: 8.92 µM

CCOC(=O)C1=C(C2CCN(c3ncc(Cl)c(C(=O)O)n3)CC2)NC(c2nccs2)=NC1c1ccc(F)c(F)c1Cl (single isomer, unassigned) [II-61-B, 5-Chloro-2-(4-(6-(2-chloro-3,4-difluorophenyl)-5-(ethoxycarbonyl)-2-(thiazol-2-yl)-3,6-dihydropyrimidin-4-yl)piperidin-1-yl)pyrimidine-4-carboxylic Acid]
EC50 [1, 3]: 0.0091 µM
CC50 at 6 days [2]: 6.68 µM

CCOC(=O)C1=C(C2CCN(c3ncc(F)c(C(=O)O)n3)CC2)NC(c2nccs2)=NC1c1ccc(F)c(F)c1Cl (single isomer, unassigned) [II-62-B, 2-(4-(6-(2-Chloro-3,4-difluorophenyl)-5-(ethoxycarbonyl)-2-(thiazol-2-yl)-3,6-dihydropyrimidin-4-yl)piperidin-1-yl)-5-fluoropyrimidine-4-carboxylic Acid]
EC50 [1, 3]: 0.016 µM
CC50 at 6 days [2]: 6.69 µM

CCOC(=O)C1=C(C2CCN(c3ncc(C)c(C(=O)O)n3)CC2)NC(c2nccs2)=NC1c1ccc(F)c(F)c1Cl (single isomer, unassigned) [II-63-B, 2-(4-(6-(2-Chloro-3,4-difluorophenyl)-5-(ethoxycarbonyl)-2-(thiazol-2-yl)-3,6-dihydropyrimidin-4-yl)piperidin-1-yl)-5-methylpyrimidine-4-carboxylic Acid]
EC50 [1, 3]: 0.021 µM
CC50 at 6 days [2]: 8.28 µM

CCOC(=O)C1=C(C2CCN(c3nc(C)c(C(=O)O)o3)CC2)NC(c2nccs2)=NC1c1ccc(F)c(F)c1Cl (single isomer, unassigned) [II-64-B, Lithium 2-(4-(6-(2-chloro-3,4-difluorophenyl)-5-(ethoxycarbonyl)-2-(thiazol-2-yl)-3,6-dihydropyrimidin-4-yl)piperidin-1-yl)-4-methyloxazole-5-carboxylate]
EC50 [1]: 0.075 µM
CC50 at 6 days [2]: 6.84 µM

CCOC(=O)C1=C(C2CCN(c3nccc(C(=O)O)n3)CC2)NC(c2nccs2)=NC1c1ccc(F)c(F)c1Cl (single isomer, unassigned) [II-65-B, 2-(4-(6-(2-chloro-3,4-difluorophenyl)-5-(ethoxycarbonyl)-2-(thiazol-2-yl)-3,6-dihydropyrimidin-4-yl)piperidin-1-yl)pyrimidine-4-carboxylic Acid]
EC50 [1, 3]: 0.0046 µM
CC50 at 6 days [2]: 6.64 µM

CCOC(=O)C1=C(C2CCN(c3ncc(CCC(=O)O)cn3)CC2)NC(c2nccs2)=NC1c1ccc(F)c(F)c1Cl (single isomer, unassigned) [II-66-B, 3-(2-(4-(6-(2-Chloro-3,4-difluorophenyl)-5-(ethoxycarbonyl)-2-(thiazol-2-yl)-3,6-dihydropyrimidin-4-yl)piperidin-1-yl)pyrimidin-5-yl)propanoic Acid]
EC50 [1, 3]: 0.0072 µM
CC50 at 6 days [2]: 10.9 µM

CCOC(=O)C1=C(C2CCN(c3ncc(C(C)(C)C(=O)O)cn3)CC2)NC(c2nccs2)=NC1c1ccc(F)c(F)c1Cl (single isomer, unassigned) [II-67-B, 2-(2-(4-(6-(2-Chloro-3,4-difluorophenyl)-5-(ethoxycarbonyl)-2-(thiazol-2-yl)-3,6-dihydropyrimidin-4-yl)piperidin-1-yl)pyrimidin-5-yl)-2-methylpropanoic Acid]
EC50 [1, 3]: 0.012 µM
CC50 at 6 days [2]: 2.02 µM

CCOC(=O)C1=C(C2CCN(c3nc(C(=O)O)c(C)o3)CC2)NC(c2nccs2)=NC1c1ccc(F)c(F)c1Cl (single isomer, unassigned) [II-68-B, 2-(4-(6-(2-Chloro-3,4-difluorophenyl)-5-(ethoxycarbonyl)-2-(thiazol-2-yl)-3,6-dihydropyrimidin-4-yl)piperidin-1-yl)5-methyloxazole-4-carboxylic Acid]
EC50 [1, 3]: 0.016 µM
CC50 at 6 days [2]: 8.32 µM

CCOC(=O)C1=C(C2CCN(c3ncc(CC(=O)O)cn3)CC2)NC(c2nccs2)=NC1c1ccc(F)c(F)c1Cl (single isomer, unassigned) [II-69-B, 2-(2-(4-(6-(2-Chloro-3,4-difluorophenyl)-5-(ethoxycarbonyl)-2-(thiazol-2-yl)-3,6-dihydropyrimidin-4-yl)piperidin-1-yl)pyrimidin-5-yl)acetic Acid]
EC50 [1, 3]: 0.0031 µM
CC50 at 6 days [2]: 4.08 µM

CCOC(=O)C1=C(C2CCN(c3nc(C(=O)O)co3)CC2)NC(c2nccs2)=NC1c1ccc(F)c(F)c1Cl (single isomer, unassigned) [II-70-B, 2-(4-(6-(2-Chloro-3,4-difluorophenyl)-5-(ethoxycarbonyl)-2-(thiazol-2-yl)-3,6-dihydropyrimidin-4-yl)piperidin-1-yl)oxazole-4-carboxylic Acid]
EC50 [1, 3]: 0.01 µM
CC50 at 6 days [2]: 11.8 µM

CCOC(=O)C1=C(C2CCN(c3nc(C)c(C(=O)O)c(C)n3)CC2)NC(c2nccs2)=NC1c1ccc(F)c(F)c1Cl (single isomer, unassigned) [II-71-B, 2-(4-(6-(2-chloro-3,4-difluorophenyl)-5-(ethoxycarbonyl)-2-(thiazol-2-yl)-3,6-dihydropyrimidin-4-yl)piperidin-1-yl)-4,6-dimethylpyrimidine-5-carboxylic Acid]
EC50 [1, 3]: 0.02 µM
CC50 at 6 days [2]: 6.33 µM

CCOC(=O)C1=C(C2CCN(c3ncc(C(=O)O)c(C)n3)CC2)NC(c2nccs2)=NC1c1ccc(F)c(F)c1Cl (single isomer, unassigned) [II-73-B, 2-(4-(6-(2-Chloro-3,4-difluorophenyl)-5-(ethoxycarbonyl)-2-(thiazol-2-yl)-3,6-dihydropyrimidin-4-yl)piperidin-1-yl)-4-methylpyrimidine-5-carboxylic Acid]
EC50 [1, 3]: 0.025 µM
CC50 at 6 days [2]: 5.92 µM

CCOC(=O)C1=C(C2CCN(c3ncc(C(=O)O)cn3)CC2)NC(c2nccs2)=NC1c1ccc(F)c(F)c1Cl (single isomer, unassigned) [II-74-B, 2-(4-(6-(2-Chloro-3,4-difluorophenyl)-5-(ethoxycarbonyl)-2-(thiazol-2-yl)-3,6-dihydropyrimidin-4-yl)piperidin-1-yl)pyrimidine-5-carboxylic Acid]
EC50 [1, 3]: 0.0066 µM
CC50 at 6 days [2]: 9.31 µM

CCOC(=O)C1=C(C2CCN(c3nncs3)CC2)NC(c2nccs2)=NC1c1ccc(F)c(F)c1Cl (single isomer, unassigned) [II-75-X, Ethyl 6-(1-(1,3,4-thiadiazol-2-yl)piperidin-4-yl)-4-(2-chloro-3,4-difluorophenyl)-2-(thiazol-2-yl)-1,4-dihydropyrimidine-5-carboxylate]
EC50 [1, 3]: 0.03 µM
CC50 at 6 days [2]: 9.81 µM

CCOC(=O)C1=C(C2CCN(c3cnc(C(=O)O)s3)CC2)NC(c2nccs2)=NC1c1ccc(F)c(F)c1Cl (single isomer, unassigned) [II-76-B, 5-(4-(6-(2-Chloro-3,4-difluorophenyl)-5-(ethoxycarbonyl)-2-(thiazol-2-yl)-3,6-dihydropyrimidin-4-yl)piperidin-1-yl)thiazole-2-carboxylate lithium salt]
EC50 [1]: 0.09 µM
CC50 at 6 days [2]: 6.68 µM

CCOC(=O)C1=C(C2CCN(c3nc(COC)c(C(=O)O)s3)CC2)NC(c2nccs2)=NC1c1ccc(F)c(F)c1Cl (single isomer, unassigned) [II-77-B, 2-(4-(6-(2-Chloro-3,4-difluorophenyl)-5-(ethoxycarbonyl)-2-(thiazol-2-yl)-3,6-dihydropyrimidin-4-yl)piperidin-1-yl)-4-(methoxymethyl)thiazole-5-carboxylic Acid]
EC50 [1, 3]: 0.029 µM
CC50 at 6 days [2]: 9.74 µM

CCOC(=O)C1=C(C2CCN(c3ncc(C(=O)O)s3)CC2)NC(c2nccs2)=NC1c1ccc(F)c(F)c1Cl (single isomer, unassigned) [II-78-B, 2-(4-(6-(2-Chloro-3,4-difluorophenyl)-5-(ethoxycarbonyl)-2-(thiazol-2-yl)-3,6-dihydropyrimidin-4-yl)piperidin-1-yl)thiazole-5-carboxylic Acid]
EC50 [1, 3]: < 0.0046 µM
CC50 at 6 days [2]: 12.1 µM
